Series [1] relates to community-dwelling subjects with mild or moderate dementia. The following applies: cited from earlier work.
In series [2] the test system is subjects with early-stage dementia. The following applies: 44 subjects with early-stage dementia; cited from earlier work.
The subject of a further series is β-amyloid. Briefly: Immunoassay of mouse antisera for IgG subtypes against β-amyloid (Down syndrome brain sections as capture antigen). In kind it is in vivo, PDAPP mice. As to conditions: nasally treated with 25 µg; over controls; Figure 11. On the procedure:
In these experiments, the antisera were tested in an immunoassay for the presence of IgG subtypes against β-amyloid. In the immunoassay, Down syndrome brain sections, which contain large amounts of β-amyloid, were employed as "capture" antigen. IgG in the mice antisera were bound to the sections, and the presence of IgG subtypes in the bound antibodies distinguished by secondary (2°) antibodies specific for each subtype. […] These antibodies are associated with Th2 type cellular immune responses.

For series [3], the system named is popliteal lymph node T-cells and spleen cells. Briefly: Proliferation assay in mouse strains immunized but not fed the peptide. In kind it is in vivo, SJL/J, DBA/1, C57BL/6, BALB/C and C3H/EB mice. As to conditions: one in vitro stimulation, Figures 2A, 2B. On the procedure: (§1) Mice were immunized with 100 µg of [1-40]β-amyloid peptide ([1-40]Aβ) emulsified in 50 µg CFA (Difco Laboratories, Inc.). On day 10, popliteal lymph nodes and spleens were removed and for T-cell proliferation and cytokine production.
Figure 2A compares proliferation of popliteal lymph node T-cells from SJL/J, DBA/I, C57BL/6, BALB/C and C3H/EB mice immunized with [1-40]β-amyloid peptide. Figure 2B compares proliferation in spleen cells from SJL/J, DBA/1, C57BL/6, BALB/C and C3H/EB mice immunized with [1-40]β-amyloid peptide. […] It should be noted that T-cells for the experiment shown in this Example are stimulated with antigen only once in vitro prior to the proliferation assay. Additional stimulations would enlist response from the apparent non-responder strain C57BL/6 and (DBA/1). This experiment provides information about the responding ability of cells from various strains and was useful in designing the subsequent experiments described below. It is believed to be advantageous to select "good responders" (such as C3H/EB) but not "too high responders" (SJL/J was thus not chosen).

Series [4] relates to popliteal lymph node T-cells. Briefly: Proliferation assay ([3H]thymidine incorporation) of popliteal lymph node cells after feeding or nasal treatment and immunization. In kind it is in vivo, SWISSXBDF1 mice. The following applies: fed or nasally treated; ten days after foot pad immunization with 100 µg peptide in 50 µg CFA; Figure 1B. On the procedure:
(§2) Female BALB/C (6-8 weeks of age); DBA/2; C3H/eb; C47b1/6; SWISSXBDF1 or SHL/J mice were used. The animals were maintained in a temperature- and light-controlled environment with free access to feed and water. Each experimental group contained no fewer than 5 mice.
as §1
A general note: Uptake of a labelled nucleoside into DNA is a usual measure of proliferation.

Another series relates to spleen T-cells. Briefly: Proliferation assay ([3H]thymidine incorporation) of spleen cells after feeding or nasal treatment and immunization. In kind it is in vivo, SWISSXBDF1 mice. As to conditions: fed (75 µg/feeding x 5) or nasally treated (25 µg x 3); immunized two days after last treatment with 100 µg peptide in 50 µg CFA; Figure 1A. On the procedure:
as §2, §1

Series [5] concerns popliteal lymph node and spleen T-cells. Briefly: Cytokine production assay (capture ELISA) after feeding or nasal administration and immunization. In kind it is in vivo, C3H/EB mice. As to conditions: then immunized. Here is the method:
C3H/eb mice were fed [1-40]Aβ 500 µg/feeding, 50 µg/feeding, or 5 µg/feeding every day for 5 days (200 µl/feeding). Nasal administration was given at 50 µg/application or 5 µg/application every day for 3 days (10 µl/application).
This experiment also served as a preliminary dose response experiment for this mouse strain.
Figure 5A illustrates the result in secretion of the Th1 immunostimulatory (proinflammatory) cytokine IL-2 in popliteal lymph nodes from C3H/EB mice at various feeding levels (5, 50 and 500 µg/feeding for 5 days) and when nasally administered (5 or 50 µg/application for 3 days) [1-40]β-amyloid peptide prior to immunization (2 days after the last feeding or nasal application) with 100 µg [1-40]β-amyloid peptide in 50 µg CFA. […] Based on the results for Fig. 5A, and Figs. 5B, 6A, 6B, and 7A, 7B, it was decided to use 25 µg nasally and 75 µg orally in subsequent experiments.

In series [6] the test system is PDAPP mice. Briefly: β-amyloid plaque load in brain sections (visual and computer assisted image analysis). In kind it is in vivo. An excerpt:
Transgenic PDAPP mice were acquired from Athena Neurosciences, Inc. (South San Francisco, CA). These mice express a human gene encoding a mutant form of β-amyloid precursor protein and progressively develop β-amyloid deposits in the hippocampus and cerebral cortex in a manner similar to that seen in Alzheimer's disease. The β-amyloid deposits in the transgenic mice become associated with activated microglial cells, reactive astrocytes and other features of the periplaque inflammatory response seen in Alzheimer's disease brains.
4 to 5 month old PDAPP mice were fed or nasally administered either [1-40]β-amyloid peptide or a control protein (myelin basic protein or ovalbumin in amounts of 50 or 500 µg per feeding). Administration was carried out three (nasal) or five times consecutively (oral) during an initial one week period, and then on a weekly basis until the animals were between 11 and 12 months old. The orally administered β-amyloid peptide was in a dosage of 10 or 100 µg, and the nasally administered β-amyloid was in a dosage of 5 or 25 µg. […]
Specificially, results are shown for both visual and computer assisted image analysis of β-amyloid plaque load for the 8 experimental groups of mice that were tested; values are shown for each mouse in the relevant group. […] The visual assessment of plaque load was scored according to the table shown at the bottom of Figure 9A.

For series [7], the system named is popliteal lymph node and spleen T-cells. The series can be described thus: Cytokine profiles (capture ELISA) after feeding or nasal administration and immunization of non-transgenic littermates. It counts as in vivo, SWISSXXB6D2F1 mice. The following applies: then immunized, ten days later. Background: ELISA stands for enzyme-linked immunosorbent assay.
Description: Levels of IL-4, IL-2, IL-10, TGF-β and IFNγ in supernatants were determined by capture ELISA as described. […] Briefly, supernatants were added to microtiter (Maxisorp) plates, previously coated with rat anti-mouse IL-4, IL-2, IL-10, TGF-β or IFN-γ monoclonal antibodies (capture antibodies, Pharmingen; 1 µg/ml at 4°C over night) and blocked with BSA-diluent/blocking solution (KPL). Plates were washed, and standards and samples were added for another overnight incubation at 4°C. Bound cytokine was detected by the addition of ABTS (Kirkegaard & Perry). Wells were washed, and cytokine levels determined using biotinylated rat anti-mouse IL-4, IL-2, IL-10, TGF-β or IFN-γ monoclonal antibodies (detecting antibodies, Pharmingen) and a peroxide visualization system (peroxidase-labeled streptavidin). IL-2 and IL-4 were analyzed after 24 hours of cell incubation with antigen, IL-10 and IFN-γ after 40 hours and TGF-β after 72 hours. Cytokine levels were calculated from a log-log plot of absorbance vs. concentration of recombinant cytokines (Pharmingen), and results are expressed in pg/mL (for IL-4, IL-2, IL-10, TGF-β and IFN-γ). Threshold sensitivities of ELISA assays were 5 pg/mL, 10 pg/mL and 2.5 ng/mL for IL-4, IL-2 and IFN-γ, respectively.
Feeding and Immunization: SWISSXXB6D2F1 mice were fed with [1-40]Aβ 75 µg/feeding x 5 or nasally administered with 25 µg/application x 3, and 2 days after the last treatment, were immunized with 100 µg [1-40]Aβ in 50 µg CFA. Ten days later, the popliteal lymph node and spleen T-cells were checked for cytokine production as described above.
The test system of series [8] is PLN. The following applies: mucosally administered, immunized 10 days prior to sacrifice. On the procedure: Levels of IL-4, IL-2, IL-10, TGF-β and IFNγ in supernatants were determined by capture ELISA as described. Friedman, A., et al., Proc. Nat'l Acad. Sci. U.S.A., 91, 6688 (1994); Yang, X., et al., J. Immunol., 150, 4354 (1993). Briefly, supernatants were added to microtiter (Maxisorp) plates, previously coated with rat anti-mouse IL-4, IL-2, IL-10, TGF-β or IFN-γ monoclonal antibodies (capture antibodies, Pharmingen; 1 µg/ml at 4°C over night) and blocked with BSA-diluent/blocking solution (KPL). Plates were washed, and standards and samples were added for another overnight incubation at 4°C. Bound cytokine was detected by the addition of ABTS (Kirkegaard & Perry). Wells were washed, and cytokine levels determined using biotinylated rat anti-mouse IL-4, IL-2, IL-10, TGF-β or IFN-γ monoclonal antibodies (detecting antibodies, Pharmingen) and a peroxide visualization system (peroxidase-labeled streptavidin). IL-2 and IL-4 were analyzed after 24 hours of cell incubation with antigen, IL-10 and IFN-γ after 40 hours and TGF-β after 72 hours. Cytokine levels were calculated from a log-log plot of absorbance vs. concentration of recombinant cytokines (Pharmingen), and results are expressed in pg/mL (for IL-4, IL-2, IL-10, TGF-β and IFN-γ). Threshold sensitivities of ELISA assays were 5 pg/mL, 10 pg/mL and 2.5 ng/mL for IL-4, IL-2 and IFN-γ, respectively.
Two mice from each of groups 1, 5, and 8 were immunized with β-amyloid peptide 10 days prior to sacrifice.

The subject of series [9] is PLN. The following applies: mice of certain strains (e.g., C3H/EB and DBA/1) mucosally tolerized.
For series [10], the system named is PDAPP mice. Briefly: Immunoreactivity tests on brain sections (immunological markers and cytokines). In kind it is in vivo. As to conditions: mice treated mucosally; Figures 9A, 9B. Here is the method:
4 to 5 month old PDAPP mice were fed or nasally administered either [1-40]β-amyloid peptide or a control protein (myelin basic protein or ovalbumin in amounts of 50 or 500 µg per feeding). Administration was carried out three (nasal) or five times consecutively (oral) during an initial one week period, and then on a weekly basis until the animals were between 11 and 12 months old. The orally administered β-amyloid peptide was in a dosage of 10 or 100 µg, and the nasally administered β-amyloid was in a dosage of 5 or 25 µg.
The feeding and nasal administration of β-amyloid peptide, or ovalbumin to PDAPP mice was conducted among the following mice groups: Group 0: Non treated; mice nos. 0.1-0.7 Group 1: fed [1-40]β-amyloid peptide 100µg/feeding; mice nos. 1.1-1.9 Group 2: fed [1-40]β-amyloid peptide 10µg/feeding; mice nos. 2.1-2.9 Group 3: nasal [1-40]β-amyloid peptide 25µg/treatment; mice nos. 3.1-3.9 Group 4: nasal [1-40]β-amyloid peptide 5µg/treatment; mice nos. 4.1-4.7 Group 5: fed ovalbumin 500µg/feeding; mice nos. 5.1-5.6 Group 6: nasal ovalbumin 50µg/treatment; mice nos. 6.1-6.6 Group 7: fed MBP 500µg/feeding; mice nos. 7.1-7.5 Group 8: nasal MBP 50µg/treatment; mice nos. 8.1-8.6
At the end of the treatment period, the mice were sacrificed and brains, popliteal lymph nodes and spleens removed. […]

Setting [11] is: at least pursuant to nasal administration of 25 µg.
[12] abbreviates: fed 75 µg/feeding x 5 or nasal 25 µg/application x 3.

On to `Cl.Nc1c2c(nc3ccccc13)CCCC2.O` [TACRINE, 1,2,3,4-tetrahydro-9-acridinamine monohydrochloride monohydrate], for which the “efficacy for treating Alzheimer's disease” value in [1] (community-dwelling subjects with mild or moderate dementia) is reported as “only partially effective”. For the same compound, the serum aminotransferase levels result in [1] (safety concern, may indicate hepatocellular injury) is “elevation”.
Regarding `COc1ccc2c(c1)c(CC(=O)O)c(C)n2C(=O)c1ccc(Cl)cc1` [indomethacin], the “mental function during the study” value in [2] is given as “did not deteriorate”.
As to “[1-40]β-amyloid peptide: β-amyloid peptide fragment [1-40], sequence derived from β-amyloid precursor protein; antigen given orally or nasally”, in the series with β-amyloid, the “IgG1 class antibodies against β-amyloid in antisera” value is recorded as “increase”. In addition, the “proliferative response to the peptide after immunization” value in [3] is recorded as “many strains of normal mice (not transgenic mice, not Alzheimer's model) respond”. Further, the “proliferation in popliteal lymph nodes” value in series [4] was “suppression of proliferation”. In the series on spleen T-cells, the “proliferation of spleen cells” value is listed as “significant suppression of proliferation”. Further, the “secretion of IL-2 in spleen cells” value in series [5] (at 5 µg fed and 50 µg nasal, Fig. 5B) is reported as “Suppression of IL-2 secretion was clear”. In [5] (fed 5, 50 or 500 µg/feeding for 5 days or nasal 5 or 50 µg/application for 3 days, Figures 4A, 4B), the “secretion of IL-10” value was “significant enhancement of IL-10 in at least one of spleen and PLN cells treated with at least one dose”. Further, the “secretion of TGF-β in spleen cells” value in series [5] (fed 5 and 50 µg/feeding for 5 days or nasal 50 µg/application for 3 days, Figure 6B) is on record as “enhanced secretion”. Besides, in [5] (nasal administration (5 or 50 µg/application for 3 days), Fig. 5A), the “secretion of IL-2 in popliteal lymph nodes” value was “Suppression of IL-2 secretion was clear”. For the same compound, in the series on PDAPP mice [6] (nasally administered 25 µg), the “difference in β-amyloid deposits versus controls (1-tailed Mann-Whitney U-test)” value is recorded as “statistically significant”. In the series on PDAPP mice [6] (oral 10 or 100 µg or nasal 5 or 25 µg, weekly from 4-5 to 11-12 months of age, versus control groups), the “development of β-amyloid deposits” value is given as “fewer β-amyloid deposits”. Further, in series [7] (setting [11]), the “in vitro IFN-γ response to Aβ stimulation” value is given as “reduced in vitro response” and the “in vitro IL-2 response to Aβ stimulation” value is on record as “reduced in vitro response”. Moreover, in series [7] (setting [12]), the “in vitro IL-10 response to Aβ stimulation” value is “increased response” and the “in vitro TGF-β response to Aβ stimulation” value is “increased response”. Besides, in the series with PLN [8] (Figure 12), the “production of IL-2” value was “decreased production”. In addition, the “production of IFN-γ” value in the series on PLN [8] (Figure 14) is reported as “decreased production”. Further, the “production of IL-6” value with PLN [8] (Figure 15) is “decreased production”. Also, the “production of IL-10” value in the series with PLN [8] (Figure 16) is “increased production”. The “production of TGF-β” value with PLN [8] (Figure 17) is on record as “increased production”. Also, the PLN proliferation result in the series with PLN [9] was “decreased PLN proliferation”. In the series with PDAPP mice [10], the “microglial activation in the brain” value is recorded as “decreased microglial activation” and the “production of inflammatory cytokines in the brain” value is reported as “decreased production”.

The values are drawn from patent publication EP1033998B1, “SUPPRESSING BETA-AMYLOID-RELATED CHANGES IN ALZHEIMER'S DISEASE” (Neuralab, Ltd., priority 1997, dated 2005).
